Peptide text beside a SMILES is read from it. * marks the point of attachment. Benzoyl(4-Br) = O=C(c1ccc(Br)cc1)*; Myristoyl = CCCCCCCCCCCCCC(=O)*
Columns and labels:
AsPC1 cells [1] = experiment: MTS cell viability assay (Example 7); assay type: cell-based, human; settings: for reduced cell viability observed: 50-200 μM
Protocol: (§1) To assess the cytotoxic and cell viability effects of GIPC inhibitor peptides, an MTS assay was conducted in pancreatic cancer cells (AsPC1) and breast cancer cells (MDA-MB-231-WT) using CR1023 and CR1166, as well as control peptides (CR1162, CR1164, CR2055 and CR2059) in a dose dependent manner (50-200 μM).

MDA-MB-231-WT cells [2] = experiment: MTS cell viability assay (Example 7); assay type: cell-based; settings: for reduced cell viability observed: 50-200 μM
Protocol: as §1

AsPC1 cells [3] = experiment: Apoptosis assay (annexin/PI); assay type: cell-based, human; settings: for apoptosis induced / reduction in live AsPC1 cells: within 48 h; for induction of apoptosis: 50-200 μM
Protocol: (§2) MDA231-WT and AsPC1 ells were seeded into 6-well plates at a density of 4×10^5/2 ml of RPMI medium per well and grown overnight. Next day cells were treated with GIPC inhibitor peptides in a time dependent (48 h-96 h) and dose dependent manner (50-200 μM). After treatment with definite time, cells were extensively washed with PBS and tested with the Annexin V-FITC Apoptosis Detection Kit (Biovision, Cat. No. #K101-100) per the manufacturer's instructions.

MDA-MB-231-WT cells [4] = experiment: Apoptosis assay (annexin/PI); assay type: cell-based; settings: for apoptosis induced: within 48 h; for induction of apoptosis: 50-200 μM
Protocol: as §2

EGFR [5] = experiment: Western blot of EGFR in AsPC1 cells; assay type: cell-based, human; settings: 48 hours; 50, 100, 200 μM
Protocol: (§3) AsPC1, MDA231-WT cells were grown in a 100 mm tissue culture dish in RPMI medium containing serum, L-glutamine and antibiotics. At 60% confluency cells were treated with GIPC inhibitor peptides in a dose dependent and time dependent manner. Untreated and GIPC inhibitor peptide-treated AsPC1 and MDA231-WT cells were washed thrice with 10 ml of cold PBS, lysed with ice-cold RIPA buffer along with halt and PIC incubated on ice for 10 min, and centrifuged at 4° C. for 10 min. The expression of IGF-1R and EGFR protein was determined in untreated and peptides treated AsPC1 and MD231A cells by Western blot analysis according to standard protocols. Briefly, protein concentration in the cell lysates was measured using Bradford assay kit (Bio-rad). The proteins were loaded on a 10% SDS-PAGE gel for separation and transferred to a membrane. […]
(§4) Since GIPC association with IGF-1R is important for IGF-1R stability, the effects of CR1023 and CR1166 on the expression of both IGF-1R and EGFR were investigated. The levels of EGFR and IGF-1R in pancreatic cancer cells (AsPC1) and breast cancer cells (MDA-MB-231A-WT) were analyzed using Western blot analysis after treatment with GIPC inhibitor peptides or control peptides for 48 hours at different concentrations (50 μM, 100 μM and 200 μM) (FIG. 21, A and B). […]

IGF-1R [6] = experiment: Western blot of IGF-1R in AsPC1 cells; assay type: cell-based, human; settings: 48 hours; 50, 100, 200 μM
Protocol: as §3, §4

EGFR [7] = experiment: Western blot of EGFR in MDA-MB-231A-WT cells; assay type: cell-based; settings: 48 hours; 50, 100, 200 μM
Protocol: as §3, §4

IGF-1R [8] = experiment: Western blot of IGF-1R in MDA-MB-231A-WT cells; assay type: cell-based; settings: 48 hours; 50, 100, 200 μM
Protocol: as §3, §4

[9] = biological target: T1, interaction between IGF-1R and GIPC (Homo sapiens, UniProt O14908); experiment: Immunoprecipitation for GIPC, immunoblot against IGF-IR in AsPC1 cells; assay type: cell-based; settings: for interaction between IGF-1R and GIPC: IP with GIPC antibody (N-19); for protein levels of IGF-IR: in vitro model
T1 construct: endogenous in cells; host or cells: AsPC1
T1 sequence (O14908 1-333): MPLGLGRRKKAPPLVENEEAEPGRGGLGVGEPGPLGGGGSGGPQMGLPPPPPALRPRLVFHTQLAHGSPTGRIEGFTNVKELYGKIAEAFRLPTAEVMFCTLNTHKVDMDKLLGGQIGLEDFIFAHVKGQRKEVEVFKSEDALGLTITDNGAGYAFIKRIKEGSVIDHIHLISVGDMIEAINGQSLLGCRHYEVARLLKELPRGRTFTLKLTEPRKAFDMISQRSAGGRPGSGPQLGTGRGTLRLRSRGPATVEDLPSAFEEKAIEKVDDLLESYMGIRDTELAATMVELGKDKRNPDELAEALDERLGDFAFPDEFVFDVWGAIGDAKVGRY
Protocol: AsPC1 cells were treated and lysate was collected in RIPA buffer. After immunoprecipitation with a GIPC antibody (N-19), western blot analysis was performed.

[10] = biological target: T2, co-localization of GIPC and IGF-1R (Homo sapiens, UniProt O14908); experiment: Duolink II co-localization of GIPC and IGF-1R in AsPC1 cells; assay type: cell-based
T2 construct: endogenous in cells; host or cells: AsPC1
T2 sequence (O14908 1-333): T1 sequence (O14908 1-333)
Protocol: Co-localization experiments were performed using a Duolink II Fluorescence kit to visualize the co-localization of GIPC and IGF-1R in control untreated AsPC1 cells (FIG. 23). Red fluorescence indicated the co-localization of GIPC and IGF-1R in AsPC1 cells.

[11] = tested on: AsPC1 cells expressing GFP/luciferase; experiment: Pancreatic tumor model, intratumoral injections; assay type: in vivo, female SCID mice; settings: for pancreatic tumor growth over time compared to control peptides: intratumoral, alternate days, one month
Protocol: (§5) In vivo tumor model experiments using female SCID mice were performed to test the effectiveness of GIPC inhibitor peptides. The pancreatic tumor model was established by injecting 5×10^6 AsPC1 cells expressing GFP/luciferase resuspended in 50 μL of sterile PBS into the mouse right flank. Similarly, the breast tumor growth model was established in mice by injecting 2×10^6 MD-MBA-231-WT cells resuspended in 50 μL of sterile PBS into the mammary fat pad of the female SCID mice. When tumors volumes reached 50-100 mm^3, the GIPC inhibitor peptides and controls were intratumorally injected on alternate days over a period of one month. In order to monitor the pancreatic tumor burden, the mice were non-invasively imaged using the IVIS 200 Bioluminescence Imaging system (Xenon Corp.) before sacrificing. After bioluminescence imaging, the effect of the peptides on tumor growth (weight and volume) and EGFR and IGF-1R expression from tumors collected from different groups were examined. Tumors collected after sacrificing the SCID mice were measured by digital slide calipers using the (½ab^2) formula.

MD-MBA-231-WT cells = experiment: Breast tumor growth model, intratumoral injections; assay type: in vivo, female SCID mice
Protocol: as §5

Structure (SMILES)	reduced cell viability observed (AsPC1 cells [1])	reduced cell viability observed (MDA-MB-231-WT cells [2])	reduction in live AsPC1 cells (AsPC1 cells [3]; 50 μM)	reduction in live AsPC1 cells (AsPC1 cells [3]; 200 μM)	induction of apoptosis (AsPC1 cells [3])	apoptosis induced (MDA-MB-231-WT cells [4]; 50 μM)	apoptosis induced (MDA-MB-231-WT cells [4]; 200 μM)	induction of apoptosis (MDA-MB-231-WT cells [4])	EGFR expression compared to control peptides (EGFR [5])	IGF-1R expression compared to control peptides (IGF-1R [6])	EGFR expression compared to control peptides (EGFR [7])	IGF-1R expression compared to control peptides (IGF-1R [8])	interaction between IGF-1R and GIPC [9]	protein levels of IGF-IR [9]	red fluorescence (co-localization of GIPC and IGF-1R) compared to control [10]	pancreatic tumor growth over time compared to control peptides [11]	other results
CCCCCCCCCCCCCC(=O)N1CCC[C@H]1C(=O)N[C@@H](CO)C(=O)N[C@@H](CCC(N)=O)C(=O)N[C@@H](CO)C(=O)N[C@@H](CCCCNC(=O)c1ccc(Br)cc1)C(=O)N[C@@H](CO)C(=O)N[C@@H](CCCCNC(=O)c1ccc(Br)cc1)C(=O)N[C@@H](C)C(=O)O [CR1166, My-PSQSK(4-Br-ben)SK(4-Br-ben)A] (Myristoyl-PSQSK(Benzoyl(4-Br))SK(Benzoyl(4-Br))A-OH; C-terminus assumed)	Reduced cell viability	Reduced cell viability	~53%	~35%	significant induction of apoptosis	~54%	~61%	significant induction of apoptosis	reduced	reduced	reduced	reduced	interfere with the interaction	reduced protein levels of IGF-IR significantly	reduced red fluorescence	significantly suppressed the pancreatic tumor growth	cell viability reduced more compared to CR1023 (AsPC1 cells [1]; 50 μM): ~50%; cell viability reduced more compared to CR1023 (AsPC1 cells [1]; 100 μM): ~45%; cell viability reduced more compared to CR1023 (AsPC1 cells [1]; 200 μM): ~35%; cell viability reduced more compared to CR1023 (MDA-MB-231-WT cells [2]; at 50 μM, 100 μM, and 200 μM): 30-33%; apoptosis induced (AsPC1 cells [3]; 50 μM): ~47%; apoptosis induced (AsPC1 cells [3]; 200 μM): ~65%; EGFR expression in tumor compared to control CR2055 ([11]; pancreatic tumors): significant reduction; IGF-1R expression in tumor compared to control CR2055 ([11]; pancreatic tumors): significant reduction; tumor regression as compared to control DMSO-PBS-treated mice ([11]; pancreatic tumors): ~4.8 times; tumor regression as compared to mice treated with CR1023 ([11]; pancreatic tumors): ~2.3 times; tumor regression as compared to mice treated with CR2055 ([11]; pancreatic tumors): ~3.8 times; tumor regression as compared to mice treated with CR2059 ([11]; pancreatic tumors): ~3.9 times; breast tumor regression as compared to mice treated with CR1023 (MD-MBA-231-WT cells; CR1023 data not shown): ~1.4 times; IGF-1R expression in tumor compared to CR2059 (MD-MBA-231-WT cells; breast tumors): significant reduction; breast tumor growth over time compared to controls (MD-MBA-231-WT cells; intratumoral, alternate days): significantly suppressed breast tumor growth; breast tumor regression as compared to control DMSO-PBS-treated mice (MD-MBA-231-WT cells; mouse, in vivo): ~2.7 times; breast tumor regression as compared to mice treated with CR2055 (MD-MBA-231-WT cells; mouse, in vivo): ~2.1 times; breast tumor regression as compared to mice treated with CR2059 (MD-MBA-231-WT cells; mouse, in vivo): ~2.2 times
CCCCCCCCCCCCCC(=O)N1CCC[C@H]1C(=O)N[C@@H](CO)C(=O)N[C@@H](CCC(N)=O)C(=O)N[C@@H](CO)C(=O)N[C@@H](CO)C(=O)N[C@@H](CO)C(=O)N[C@@H](CCC(=O)O)C(=O)N[C@@H](C)C(=O)O [CR1023, My-PSQSSSEA] (Myristoyl-PSQSSSEA-OH; C-terminus assumed)	Reduced cell viability	Reduced cell viability	~78%	~62%	significant induction of apoptosis	~30%	~35%	significant induction of apoptosis	reduced	reduced	reduced	reduced	interfere with the interaction	reduced protein levels of IGF-IR significantly	reduced red fluorescence	significantly suppressed the pancreatic tumor growth	
